Measured values as given in patent publication US10294202B2, “Pyrrolidinones as herbicides” (FMC Corporation, priority 2013, dated 2019).
Where two headings read alike, the source gives them in different places.

Assays:
Experiment in all cases: Test A pre-/postemergence herbicide test
wheat = format: in vivo, Triticum aestivum; settings: for plant injury at 1000 g/ha: Triticum aestivum, 240 h, read-out: Plant response rating, Wheat
Excerpt: (§1) Seeds of plant species selected from bamyardgrass (Echinochloa crus-galli), kochia (Kochia scoparia), ragweed (common ragweed, Ambrosia elatior), ryegrass, Italian (Italian ryegrass, Lolium multiflorum), crabgrass, large (large crabgrass Digitaria sanguinalis), giant foxtail (Setaria faberii), morningglory (Ipomoea spp.), pigweed (Amaranthus retroflexus), velvetleaf (Abutilon theophrasti), wheat (Triticum aestivum), and corn (Zea mays) were planted into a blend of loam soil and sand and treated preemergence with a directed soil spray using test chemicals formulated in a non-phytotoxic solvent mixture which included a surfactant. At the same time, plants selected from these crop and weed species and also blackgrass (Alopecurus myosuroides), and galium (catchweed bedstraw, Galium aparine) were planted in pots containing the same blend of loam soil and sand and treated with postemergence applications of test chemicals formulated in the same manner. Plants ranged in height from 2 to 10 cm and were in the one- to two-leaf stage for the postemergence treatment. Treated plants and untreated controls were maintained in a greenhouse for approximately 10 days, after which time all treated plants were compared to untreated controls and visually evaluated for injury. Plant response ratings, summarized in Table A, are based on a 0 to 100 scale where 0 is no effect and 100 is complete control. A dash (-) response means no test result.

crabgrass, large = format: in vivo, Digitaria sanguinalis; settings: for pest or weed control at 1000 g/ha: Digitaria sanguinalis, 240 h, read-out: Plant response rating, Crabgrass, Large
Excerpt: as §1

corn = format: in vivo, Zea mays; settings: for Corn plant response rating (crop injury, 0 = no effect, 100 = complete kill) at 1000 g/ha: Zea mays, 240 h
Outline: (§2)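 Visual 0–100 ratings (100 = complete control) made about 10 days after treatment, greenhouse-held plants compared with untreated controls. Treatments: postemergence sprays on one- to two-leaf plants (2–10 cm tall) and preemergence directed soil sprays after planting in loam–sand, chemicals formulated in non-phytotoxic solvent containing surfactant.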

barnyardgrass = format: in vivo, Echinochloa crus-galli; settings: for pest or weed control at 1000 g/ha: Echinochloa crus-galli, 240 h, read-out: Plant response rating, Barnyardgrass
Outline: as §2

velvetleaf = format: in vivo, Abutilon theophrasti; settings: for pest or weed control at 1000 g/ha: Abutilon theophrasti, 240 h, read-out: Plant response rating, Velvetleaf
Excerpt: as §1

morningglory = format: in vivo, Ipomoea spp.; settings: for pest or weed control at 1000 g/ha: Ipomoea, 240 h, read-out: Plant response rating, Morningglory
Excerpt: as §1

pigweed = format: in vivo, Amaranthus retroflexus; settings: for pest or weed control at 1000 g/ha: Amaranthus retroflexus, 240 h, read-out: Plant response rating, Pigweed
Outline: as §2

giant foxtail = format: in vivo, Setaria faberii; settings: for pest or weed control at 1000 g/ha: Setaria faberi, 240 h, read-out: Plant response rating, Foxtail, Giant
Excerpt: as §1

[1] = Postemergence, 1000 g ai/ha, 0 to 100 scale (0 no effect, 100 complete control)
[2] = preemergence, 1000 g ai/ha, 0 to 100 scale
[3] = post-emergence, Postemergence, 1000 g ai/ha, 0 to 100 scale (0 no effect, 100 complete control)
[4] = pre-emergence, Preemergence, 1000 g ai/ha, visual rating on 0 to 100 scale (0 no effect, 100 complete control), approx. 10 days
[5] = Postemergence, 125 g ai/ha, 0 to 100 scale, 0 no effect, 100 complete control
[6] = Postemergence, 500 g ai/ha, 0 to 100 scale (0 no effect, 100 complete control)
[7] = Preemergence, 125 g ai/ha, visual rating on 0 to 100 scale (0 no effect, 100 complete control)
[8] = preemergence, 500 g ai/ha, 0 to 100 scale

Cn1ccnc1C1CNC(=O)C1C(=O)Nc1ccccc1F (racemic) [Compound 255]
90: Plant response rating, Crabgrass, Large (crabgrass, large; [2])
0: Plant response rating, Wheat (wheat; [1]) | Plant response rating, Wheat (wheat; [2]) | Plant response rating, Crabgrass, Large (crabgrass, large; [1]) | Plant response rating, Corn (corn; [1]) | Plant response rating, Corn (corn; [2]) | Plant response rating, Barnyardgrass (barnyardgrass; [1]) | Plant response rating, Velvetleaf (velvetleaf; [1]) | Plant response rating, Velvetleaf (velvetleaf; [2]) | Plant response rating, Morningglory (morningglory; [1]) | Plant response rating, Morningglory (morningglory; [2]) | Plant response rating, Pigweed (pigweed; [1]) | Plant response rating, Pigweed (pigweed; [2]) | Plant response rating, Foxtail, Giant (giant foxtail; [1])
70: Plant response rating, Foxtail, Giant (giant foxtail; [2])
60: Plant response rating, Barnyardgrass (barnyardgrass; preemergence, 1000 g ai/ha, 0 to 100 scale (0 no effect, 100 complete control))

O=C(Nc1ccccc1F)C1C(=O)N(O)CC1c1ccc(F)c(F)c1 (centres unmarked) [Compound 44, 4-(3,4-difluorophenyl)-N-(2-fluorophenyl)-1-hydroxy-2-oxo-3-pyrrolidinecarboxamide]
60%: pest or weed control at 1000 g/ha (barnyardgrass; [3])
90%: pest or weed control at 1000 g/ha (crabgrass, large; [4])
30%: pest or weed control at 1000 g/ha (giant foxtail; [3])
0%: plant injury at 1000 g/ha (wheat; [3]) | plant injury at 1000 g/ha (wheat; [4]) | Corn plant response rating (crop injury, 0 = no effect, 100 = complete kill) at 1000 g/ha (corn; [3]) | Corn plant response rating (crop injury, 0 = no effect, 100 = complete kill) at 1000 g/ha (corn; [4]) | pest or weed control at 1000 g/ha (velvetleaf; [3]) | pest or weed control at 1000 g/ha (velvetleaf; [4]) | pest or weed control at 1000 g/ha (morningglory; [3]) | pest or weed control at 1000 g/ha (morningglory; [4]) | pest or weed control at 1000 g/ha (pigweed; [3]) | pest or weed control at 1000 g/ha (pigweed; [4])
50%: pest or weed control at 1000 g/ha (crabgrass, large; [3])
70%: pest or weed control at 1000 g/ha (giant foxtail; [4])
40%: pest or weed control at 1000 g/ha (barnyardgrass; [4])

O=C1NCC(c2ccccc2)C1(Br)C(=O)Nc1ccc(Br)cc1F (centres unmarked) [Compound 94]
50: Plant response rating, Crabgrass, Large (crabgrass, large; [8])
0: Plant response rating, Wheat (wheat; [5]) | Plant response rating, Wheat (wheat; [6]) | Wheat plant response rating (wheat; [7]) | Plant response rating, Wheat (wheat; [8]) | Plant response rating, Crabgrass, Large (crabgrass, large; [5]) | Plant response rating, Crabgrass, Large (crabgrass, large; [6]) | Crabgrass, Large plant response rating (crabgrass, large; [7]) | Plant response rating, Corn (corn; [5]) | Plant response rating, Corn (corn; [6]) | Corn plant response rating (corn; [7]) | Plant response rating, Corn (corn; [8]) | Plant response rating, Barnyardgrass (barnyardgrass; [5]) | Plant response rating, Barnyardgrass (barnyardgrass; [6]) | Barnyardgrass plant response rating (barnyardgrass; [7]) | Plant response rating, Barnyardgrass (barnyardgrass; preemergence, 500 g ai/ha, 0 to 100 scale (0 no effect, 100 complete control)) | Plant response rating, Velvetleaf (velvetleaf; [5]) | Plant response rating, Velvetleaf (velvetleaf; [6]) | Velvetleaf plant response rating (velvetleaf; [7]) | Plant response rating, Morningglory (morningglory; [5]) | Plant response rating, Morningglory (morningglory; [6]) | Morningglory plant response rating (morningglory; [7]) | Plant response rating, Morningglory (morningglory; [8]) | Plant response rating, Pigweed (pigweed; [5]) | Plant response rating, Pigweed (pigweed; [6]) | Pigweed plant response rating (pigweed; [7]) | Plant response rating, Foxtail, Giant (giant foxtail; [5]) | Plant response rating, Foxtail, Giant (giant foxtail; [6]) | Foxtail, Giant plant response rating (giant foxtail; [7]) | Plant response rating, Foxtail, Giant (giant foxtail; [8])
